Entries after “also recorded” stand apart in the source; their conditions may differ.
How the values were obtained:
PC12 cells = details: 5 μM, 24 hours
PDZ1/2 domain [1] = biological target: T1, PDZ1/2 domain (Homo sapiens, UniProt P78352)
PDZ1/2 domain [2] = biological target: T1, PDZ1/2 domain; details: His beads, SDS-PAGE of eluate, FIG. 1

T1 sequence (P78352 61-249 limits assumed): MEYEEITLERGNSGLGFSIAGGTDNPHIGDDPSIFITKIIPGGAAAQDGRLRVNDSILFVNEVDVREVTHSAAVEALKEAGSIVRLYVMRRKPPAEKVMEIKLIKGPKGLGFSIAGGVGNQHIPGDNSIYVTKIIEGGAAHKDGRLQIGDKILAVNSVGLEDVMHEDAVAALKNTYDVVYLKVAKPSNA

Row | SMILES | cytotoxicity (cell viability) (PC12 cells) | interaction with the PDZ1/2 domain as compared with control chimeric peptide NA-1 (PDZ1/2 domain [1]) | binding to PDZ1/2 domain in pull-down assay (PDZ1/2 domain [2])
1 | CC[C@H](C)[C@H](NC(=O)[C@H](CCC(=O)O)NC(=O)[C@@H](NC(=O)[C@H](CC(=O)O)NC(=O)[C@H](CC(C)C)NC(=O)[C@H](CC(C)C)NC(=O)[C@H](CCCCN)NC(=O)[C@H](CCC(=O)O)NC(=O)[C@H](Cc1ccc(O)cc1)NC(=O)[C@H](CCCNC(=N)N)NC(=O)[C@H](CCCNC(=N)N)NC(=O)[C@H](CCCNC(=N)N)NC(=O)[C@H](CCC(N)=O)NC(=O)[C@H](CCCNC(=N)N)NC(=O)[C@H](CCCNC(=N)N)NC(=O)[C@H](CCCCN)NC(=O)[C@H](CCCCN)NC(=O)[C@H](CCCNC(=N)N)NC(=O)CNC(=O)[C@@H](N)Cc1ccc(O)cc1)[C@@H](C)O)C(=O)O [P5-Ac] | no significant cytotoxicity |  | 
2 | CC[C@H](C)[C@H](NC(=O)[C@H](CCC(=O)O)NC(=O)[C@@H](NC(=O)[C@H](CC(=O)O)NC(=O)[C@H](CC(C)C)NC(=O)[C@H](CC(C)C)NC(=O)[C@H](CCCCN)NC(=O)[C@H](CCC(=O)O)NC(=O)[C@H](Cc1ccc(O)cc1)NC(=O)[C@H](CCCNC(=N)N)NC(=O)[C@H](CCCNC(=N)N)NC(=O)[C@H](CCCNC(=N)N)NC(=O)[C@H](CCC(N)=O)NC(=O)[C@H](CCCNC(=N)N)NC(=O)[C@H](CCCNC(=N)N)NC(=O)[C@H](CCCCN)NC(=O)[C@H](CCCCN)NC(=O)[C@H](CCCNC(=N)N)NC(=O)CNC(=O)[C@@H](N)Cc1ccc(O)cc1)[C@@H](C)O)C(=O)O [P5] |  | interacted more strongly | can bind to the PDZ1/2 domain; also recorded: capable of binding to PDZ1/2 domain

— patent US11767344B2, “Pharmaceutically acceptable salts of polypeptides and methods of inhibiting the interaction between psd-95 and n-methyl-d-aspartic acid receptor (nmdar)” (BIOCELLS (BEIJING) BIOTECH CO., LTD., priority 2017, dated 2023)
